Source: ChEMBL document CHEMBL1153550, “In vitro study of Candida tropicalis isolates exhibiting paradoxical growth in the presence of high concentrations of caspofungin” (2007)
Values after ≈ are worked out from the molar mass of the structure shown. Active and inactive are the calls of the source. No cut-off for these calls is given here.

Experiments:
Candida tropicalis [1] = experiment: Antifungal activity against > 2 x 10^7 CFU/ml Candida tropicalis isolate 8 in antibiotic medium 3 assessed as partial growth after 24 hrs by broth microdilution method; format: functional, organism-based
Candida tropicalis [2] = experiment: Antifungal activity against > 2 x 10^7 CFU/ml Candida tropicalis isolate 1 in antibiotic medium 3 assessed as partial growth after 24 hrs by broth microdilution method; format: functional, organism-based
Candida tropicalis [3] = experiment: Antifungal activity against > 2 x 10^7 CFU/ml Candida tropicalis isolate 10 in RPMI 1640 medium assessed as partial growth after 24 hrs by broth microdilution method; format: functional, organism-based
Candida tropicalis [4] = experiment: Antifungal activity against > 2 x 10^7 CFU/ml Candida tropicalis isolate 4 in RPMI 1640 medium assessed as partial growth after 24 hrs by broth microdilution method; format: functional, organism-based
Candida tropicalis [5] = experiment: Antifungal activity against > 2 x 10^7 CFU/ml Candida tropicalis isolate 3 in RPMI 1640 medium assessed as partial growth after 24 hrs by broth microdilution method; format: functional, organism-based
Candida tropicalis [6] = experiment: Antifungal activity against 2 x 10^7 CFU/ml Candida tropicalis isolate 14 in antibiotic medium 3 after 24 hrs by broth microdilution method; format: functional; conditions: isolate 14, 24 h
Candida tropicalis [7] = experiment: Antifungal activity against 2 x 10^7 CFU/ml Candida tropicalis isolate 10 in antibiotic medium 3 after 24 hrs by broth microdilution method; format: functional; conditions: isolate 10, 24 h
Candida tropicalis [8] = experiment: Antifungal activity against 2 x 10^7 CFU/ml Candida tropicalis isolate 8 in antibiotic medium 3 after 24 hrs by broth microdilution method; format: functional; conditions: isolate 8, 24 h
Candida tropicalis [9] = experiment: Antifungal activity against 2 x 10^7 CFU/ml Candida tropicalis isolate 4 in antibiotic medium 3 after 24 hrs by broth microdilution method; format: functional; conditions: isolate 4, 24 h
Candida tropicalis [10] = experiment: Antifungal activity against 2 x 10^7 CFU/ml Candida tropicalis isolate 2 in antibiotic medium 3 after 24 hrs by broth microdilution method; format: functional; conditions: isolate 2, 24 h
Candida tropicalis [11] = experiment: Antifungal activity against 2 x 10^7 CFU/ml Candida tropicalis isolate 1 in RPMI 1640 medium after 24 hrs by broth microdilution method; format: functional; conditions: isolate 1, 24 h
Candida tropicalis [12] = experiment: Antifungal activity against 10^5 CFU/ml Candida tropicalis isolate 6 in RPMI 1640 medium at 12.5 ug/ml treated for 48 hrs followed by incubation in drug free medium for 48 hrs by broth microdilution method; format: functional, organism-based
Candida tropicalis [13] = experiment: Antifungal activity against 10^5 CFU/ml Candida tropicalis isolate 7 in RPMI 1640 medium at 12.5 ug/ml treated for 48 hrs followed by incubation in drug free medium for 48 hrs by broth microdilution method; format: functional, organism-based
Candida tropicalis [14] = experiment: Antifungal activity against 10^5 CFU/ml Candida tropicalis isolate 12 in RPMI 1640 medium at 12.5 ug/ml treated for 48 hrs followed by incubation in drug free medium for 48 hrs by broth microdilution method; format: functional, organism-based
Candida tropicalis [15] = experiment: Antifungal activity against 10^5 CFU/ml Candida tropicalis isolate 13 in RPMI 1640 medium at 12.5 ug/ml treated for 48 hrs followed by incubation in drug free medium for 48 hrs by broth microdilution method; format: functional, organism-based
Candida tropicalis [16] = experiment: Antifungal activity against 10^5 CFU/ml Candida tropicalis isolate 14 in RPMI 1640 medium at 12.5 ug/ml treated for 48 hrs followed by incubation in drug free medium for 48 hrs by broth microdilution method; format: functional, organism-based
Candida tropicalis [17] = experiment: Antifungal activity against Candida tropicalis isolate 6 in RPMI 1640 medium assessed as paradoxical growth at 6.25 ug/ml after 24 hrs by broth microdilution method; format: functional, organism-based
Candida tropicalis [18] = experiment: Antifungal activity against Candida tropicalis isolate 15 in RPMI 1640 medium assessed as paradoxical growth at 12.5 ug/ml after 24 hrs by broth microdilution method; format: functional, organism-based
Candida tropicalis [19] = experiment: Antifungal activity against 10^5 CFU/ml Candida tropicalis clinical isolate in RPMI 1640 medium treated for 24 hrs followed by incubation in drug free medium for 48 hrs by broth microdilution method; format: functional, organism-based
Candida tropicalis [20] = experiment: Antifungal activity against 10^5 CFU/ml Candida tropicalis isolate 7 in RPMI 1640 medium at =< 0.09 ug/ml after 24 hrs followed by incubation in drug free medium for 48 hrs by broth microdilution method; format: functional, organism-based
Candida tropicalis [21] = experiment: Antifungal activity against 10^5 CFU/ml Candida tropicalis isolate 5 in RPMI 1640 medium at =< 0.09 ug/ml after 24 hrs followed by incubation in drug free medium for 48 hrs by broth microdilution method; format: functional, organism-based
Candida tropicalis [22] = experiment: Antifungal activity against 10^5 CFU/ml Candida tropicalis isolate 6 in antibiotic medium 3 at 12.5 ug/ml treated for 24 hrs followed by incubation in drug free medium for 48 hrs by broth microdilution method; format: functional, organism-based
Candida tropicalis [23] = experiment: Antifungal activity against > 2 x 10^7 CFU/ml Candida tropicalis isolate 6 in antibiotic medium 3 assessed as paradoxical growth after 24 hrs by broth microdilution method; format: functional, organism-based
Candida tropicalis [24] = experiment: Antifungal activity against 10^5 CFU/ml Candida tropicalis isolate 13 in RPMI 1640 medium at 12.5 ug/ml treated for 24 hrs followed by incubation in drug free medium for 48 hrs by broth microdilution method; format: functional, organism-based
Candida tropicalis [25] = experiment: Antifungal activity against 10^5 CFU/ml Candida tropicalis isolate 12 in RPMI 1640 medium at 12.5 ug/ml treated for 24 hrs followed by incubation in drug free medium for 48 hrs by broth microdilution method; format: functional, organism-based
Candida tropicalis [26] = experiment: Antifungal activity against > 2 x 10^7 CFU/ml Candida tropicalis isolate 12 in antibiotic medium 3 assessed as partial growth after 24 hrs by broth microdilution method; format: functional, organism-based

- MIC (Candida tropicalis [6]): 0.024 µg/mL (≈ 0.022 µM)
- MIC (Candida tropicalis [7]): 0.024 µg/mL (≈ 0.022 µM)
- MIC (Candida tropicalis [8]): 0.024 µg/mL (≈ 0.022 µM)
- MIC (Candida tropicalis [9]): 0.024 µg/mL (≈ 0.022 µM)
- MIC (Candida tropicalis [10]): 0.024 µg/mL (≈ 0.022 µM)
- MIC (Candida tropicalis [11]): 0.024 µg/mL (≈ 0.022 µM)
SMILES: CC[C@H](C)C[C@H](C)CCCCCCCCC(=O)N[C@H]1C[C@@H](O)[C@@H](NCCN)NC(=O)[C@@H]2[C@@H](O)CCN2C(=O)[C@H]([C@H](O)CCN)NC(=O)[C@H]([C@H](O)[C@@H](O)c2ccc(O)cc2)NC(=O)[C@@H]2C[C@@H](O)CN2C(=O)[C@H]([C@@H](C)O)NC1=O [CASPOFUNGIN]
- Activity (Candida tropicalis [1]): inactive
- Activity (Candida tropicalis [2]): inactive
- Activity (Candida tropicalis [3]): inactive
- Activity (Candida tropicalis [4]): inactive
- Activity (Candida tropicalis [5]): inactive
- Activity (Candida tropicalis [12]): inactive
- Activity (Candida tropicalis [13]): Active
- Activity (Candida tropicalis [14]): inactive
- Activity (Candida tropicalis [15]): inactive
- Activity (Candida tropicalis [16]): inactive
- Activity (Candida tropicalis [17]): inactive
- Activity (Candida tropicalis [18]): inactive
- Activity (Candida tropicalis [19]): Active
- Activity (Candida tropicalis [20]): Active
- Activity (Candida tropicalis [21]): Active
- Activity (Candida tropicalis [22]): inactive
- Activity (Candida tropicalis [23]): inactive
- Activity (Candida tropicalis [24]): inactive
- Activity (Candida tropicalis [25]): inactive
- Activity (Candida tropicalis [26]): inactive
